Laboratory results published in patent US9440978B2, “Imidazolo-, oxazolo-, and thiazolopyrimidine modulators of TRPV1” (Janssen Pharmaceutica NV, priority 2007, dated 2016).
Where a name gives a salt, the structure may show the parent alone.

Columns and labels:
human TRPV1 = target: T1, human TRPV1 (Homo sapiens, UniProt Q8NER1); test: Block of capsaicin-induced Ca2+ influx, human assay (hTRPV1/HEK293, FLIPR); assay type: cell-based; conditions: HEK293 cells transfected with human TRPV1; 150 nM capsaicin challenge; mean; > value = solubility limit in assay medium
T1 construct: expressed in transfected cells; host or cells: HEK293
Protocol: (§1) HEK293 cells were transfected with human TRPV1 cloned in pcDNA3.1zeo(+) using the Effectene non-liposomal lipid based transfection kit (Qiagen) (hTRPV1/HEK293). hTRPV1/HEK293 cells were routinely grown as monolayers under selection in zeocin (200 μg/mL; Invitrogen) in Dulbecco's Modified Eagle Medium (DMEM, Gibco BRL) supplemented with 10% fetal bovine serum, and penicillin/streptomycin (50 units/mL) in 5% CO2 at 37° C. Cells were passaged frequently, every 3-5 days, to avoid overgrowth, depletion of essential medium components, or acidic medium exposure. Cells were passaged using a brief wash in 0.05% trypsin with 1 mM EDTA, followed by dissociation in divalent-free phosphate-buffered saline (Hyclone #SH30028.02). […] The assay buffer was composed of 130 mM NaCl, 2 mM KCl, 2 mM MgCl2, 10 mM HEPES, 5 mM glucose, and either 2 mM or 20 μM CaCl2. On the day of the experiment, the culture medium was replaced with 2 mM calcium assay buffer using an automated plate washer (ELx405; Biotek, VT). […] After loading the cells, the dye solution was replaced with 50 μL/well of 20 μM calcium assay buffer using the ELx405 plate washer. Test compounds (50 μL/well) were added to the plate and incubated for 30 min. Intracellular Ca^2+ levels were subsequently assayed using a Fluorometric Imaging Plate Reader (FLIPR™ instrument, Molecular Devices, CA) to simultaneously monitor Fluo-3 fluorescence in all wells (λexcitation=488 nm, λemission=540 nm) during challenge with agonist (capsaicin). The IC50 values were determined. […] The contents of the wells were mixed 3 times (40 μL mix volume) immediately after the additions were made. Concentration-dependence of block was determined by exposing each well of cells in duplicate rows of a 96-well plate to a serial dilution of test compound. The concentration series usually started at 10 μM with a three-fold serial decrement in concentration. The magnitude of the capsaicin response was determined by measuring the change in fluo3 fluorescence before and 100 seconds after the addition of the agonist. Data were analyzed using a non-linear regression program (Origin; OriginLab, MA).
(§2) IC50 values shown are the average (mean) of the results obtained. […] Compounds were tested as in the free base, trifluoroacetic acid salt, or hydrochloride salt form.

rat TRPV1 = target: T2, rat TRPV1 (Rattus norvegicus, UniProt O35433); test: Block of capsaicin-induced Ca2+ influx, rat assay (rTRPV1/HEK293, FLIPR); assay type: cell-based; conditions: HEK293 cells transfected with rat TRPV1; capsaicin challenge; mean; > value = solubility limit in assay medium; read-out: Rat IC50
T2 construct: expressed in transfected cells; host or cells: HEK293
Protocol: as §1
This assay was performed similarly to the human assay described above, but using HEK293 cells transfected with rat TRPV1 (rTRPV1/HEK293).
as §2

T2 sequence (O35433 whole entry): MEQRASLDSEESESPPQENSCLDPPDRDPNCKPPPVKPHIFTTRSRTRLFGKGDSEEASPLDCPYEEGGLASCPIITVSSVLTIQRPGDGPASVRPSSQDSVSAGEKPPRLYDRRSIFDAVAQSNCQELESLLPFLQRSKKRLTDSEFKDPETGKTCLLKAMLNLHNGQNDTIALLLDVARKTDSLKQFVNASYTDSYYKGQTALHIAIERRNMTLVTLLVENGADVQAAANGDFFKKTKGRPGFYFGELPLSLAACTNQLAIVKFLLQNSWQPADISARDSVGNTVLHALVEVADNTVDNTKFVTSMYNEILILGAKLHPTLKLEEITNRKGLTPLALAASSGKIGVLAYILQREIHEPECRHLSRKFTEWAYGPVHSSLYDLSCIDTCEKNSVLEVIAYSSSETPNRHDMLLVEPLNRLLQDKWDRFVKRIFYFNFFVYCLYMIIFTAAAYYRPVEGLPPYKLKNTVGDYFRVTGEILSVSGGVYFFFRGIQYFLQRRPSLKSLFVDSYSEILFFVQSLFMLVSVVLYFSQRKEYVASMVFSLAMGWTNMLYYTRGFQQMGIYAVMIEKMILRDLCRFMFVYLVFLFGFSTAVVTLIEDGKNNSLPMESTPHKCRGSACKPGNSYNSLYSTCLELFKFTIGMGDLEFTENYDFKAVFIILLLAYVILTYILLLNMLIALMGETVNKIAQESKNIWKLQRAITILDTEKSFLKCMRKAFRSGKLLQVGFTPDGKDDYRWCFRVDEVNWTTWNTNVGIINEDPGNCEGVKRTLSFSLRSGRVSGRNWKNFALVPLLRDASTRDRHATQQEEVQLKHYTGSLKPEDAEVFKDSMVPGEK
T1 sequence (Q8NER1 whole entry): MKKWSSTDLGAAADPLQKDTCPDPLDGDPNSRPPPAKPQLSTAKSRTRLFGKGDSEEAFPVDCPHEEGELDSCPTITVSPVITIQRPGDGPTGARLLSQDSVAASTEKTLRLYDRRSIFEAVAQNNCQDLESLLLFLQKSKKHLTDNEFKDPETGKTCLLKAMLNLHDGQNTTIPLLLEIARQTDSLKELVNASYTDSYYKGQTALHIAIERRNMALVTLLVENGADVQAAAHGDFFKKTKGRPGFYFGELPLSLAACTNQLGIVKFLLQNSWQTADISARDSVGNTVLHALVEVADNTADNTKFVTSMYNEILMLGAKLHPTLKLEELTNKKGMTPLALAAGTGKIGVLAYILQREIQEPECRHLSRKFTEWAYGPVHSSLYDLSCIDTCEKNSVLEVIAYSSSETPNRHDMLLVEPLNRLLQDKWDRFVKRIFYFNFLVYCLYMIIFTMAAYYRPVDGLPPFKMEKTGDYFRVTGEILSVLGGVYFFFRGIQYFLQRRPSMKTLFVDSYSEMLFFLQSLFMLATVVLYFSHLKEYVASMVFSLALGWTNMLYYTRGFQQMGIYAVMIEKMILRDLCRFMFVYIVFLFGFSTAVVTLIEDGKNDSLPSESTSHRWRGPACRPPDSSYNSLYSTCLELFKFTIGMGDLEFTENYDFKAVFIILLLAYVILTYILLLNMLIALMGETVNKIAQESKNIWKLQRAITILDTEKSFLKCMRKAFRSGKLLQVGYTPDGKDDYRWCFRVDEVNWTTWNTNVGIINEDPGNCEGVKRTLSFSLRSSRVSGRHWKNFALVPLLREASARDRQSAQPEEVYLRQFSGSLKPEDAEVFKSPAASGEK

Compound	IC50 (human TRPV1) [nM]	IC50 (rat TRPV1) [nM]
FC(F)(F)c1ccc(Nc2ncnc3oc(Cc4c(Cl)cccc4Cl)nc23)cc1 [Example 1, [2-(2,6-Dichloro-benzyl)-oxazolo[5,4-d]pyrimidin-7-yl]-(4-trifluoromethyl-phenyl)-amine]	136	58
CC(C)(C)c1ccc(Nc2ncnc3oc(Cc4c(Cl)cccc4Cl)nc23)cc1 [Example 2, (4-tert-Butyl-phenyl)-[2-(2,6-dichloro-benzyl)-oxazolo[5,4-d]pyrimidin-7-yl]-amine]	75	30
FC(F)(F)c1ccc(Nc2ncnc3sc(Cc4c(Cl)cccc4Cl)nc23)cc1 [Example 3, [2-(2,6-Dichloro-benzyl)-thiazolo[5,4-d]pyrimidin-7-yl]-(4-trifluoromethyl-phenyl)-amine]	48	30
FC(F)(F)c1ccc(Nc2ncnc3sc(Cc4ccccc4I)nc23)cc1 [Example 4, [2-(2-Iodo-benzyl)-thiazolo[5,4-d]pyrimidin-7-yl]-(4-trifluoromethyl-phenyl)-amine]	22	8
COC(=O)C(C)(C)c1ccc(Nc2ncnc3sc(Cc4c(Cl)cccc4Cl)nc23)cc1 [Example 26, Methyl 2-(4-{[2-(2,6-dichlorobenzyl)[1,3]thiazolo[5,4-d]pyrimidin-7-yl]amino}phenyl)-2-methylpropanoate]	–	74
FC(F)(F)c1ccc(Nc2ncnc3sc(Cc4ccc(Cl)cc4Cl)nc23)cc1 [Example 27, 2-(2,4-Dichlorobenzyl)-N-[4-(trifluoromethyl)phenyl][1,3]thiazolo[5,4-d]pyrimidin-7-amine]	–	43
O=S(=O)(c1ccc(Nc2ncnc3sc(Cc4c(Cl)cccc4Cl)nc23)cc1)N1CCNCC1 [Example 28, 2-(2,6-Dichlorobenzyl)-N-[4-(piperazin-1-ylsulfonyl)phenyl][1,3]thiazolo[5,4-d]pyrimidin-7-amine]	–	> 2220
FC(F)(F)c1ccc(Nc2ncnc3sc(Cc4ccc(Cl)cc4Cl)nc23)cn1 [Example 29, 2-(2,4-Dichlorobenzyl)-N-[6-(trifluoromethyl)pyridin-3-yl][1,3]thiazolo[5,4-d]pyrimidin-7-amine]	–	600
FC(F)(F)c1ccc(Nc2ncnc3sc(Cc4ccccc4C(F)(F)F)nc23)cn1 [Example 31, 2-[2-(Trifluoromethyl)benzyl]-N-[6-(trifluoromethyl)pyridin-3-yl][1,3]thiazolo[5,4-d]pyrimidin-7-amine]	–	13
CSc1ccc(Nc2ncnc3sc(Cc4c(Cl)cccc4Cl)nc23)cn1 [Example 38, 2-(2,6-Dichlorobenzyl)-N-[6-(methylsulfanyl)pyridin-3-yl][1,3]thiazolo[5,4-d]pyrimidin-7-amine]	–	99
CC(CO)Nc1nc(Nc2ccc(C(F)(F)F)cc2)c2nc(Cc3c(Cl)cccc3Cl)sc2n1 (stereo not shown) [Example 70, 2-[2-(2,6-Dichloro-benzyl)-7-(4-trifluoromethyl-phenylamino)-thiazolo[5,4-d]pyrimidin-5-ylamino]-propan-1-ol]	–	1020
FC(F)(F)c1ccc(Nc2nc(NCCN3CCCC3)nc3sc(Cc4c(Cl)cccc4Cl)nc23)cc1 [Example 82, 2-(2,6-Dichloro-benzyl)-N^5-(2-pyrrolidin-1-yl-ethyl)-N^7-(4-trifluoromethyl-phenyl)-thiazolo[5,4-d]pyrimidine-5,7-diamine trifluoroacetic acid salt]	–	959
FC(F)(F)c1nnc(Nc2ncnc3sc(Cc4c(Cl)cccc4Cl)nc23)s1 [Example 98, 2-(2,6-Dichlorobenzyl)-N-[5-(trifluoromethyl)-1,3,4-thiadiazol-2-yl][1,3]thiazolo[5,4-d]pyrimidin-7-amine]	–	1050
CC(C)COc1nc(Nc2ccc(C(F)(F)F)cc2)c2nc(Cc3c(Cl)cccc3Cl)sc2n1 [Example 103, [2-(2,6-Dichloro-benzyl)-5-isobutoxy-thiazolo[5,4-d]pyrimidin-7-yl]-(4-trifluoromethyl-phenyl)-amine]	–	16

The next lines start with the values.

IC50 (human TRPV1) [nM]	IC50 (rat TRPV1) [nM]	Compound
–	> 6670	CSc1nc(Nc2ccc(C(F)(F)F)cc2)c2nc(Cc3c(Cl)cccc3Cl)sc2n1 [Example 5, [2-(2,6-Dichloro-benzyl)-5-methylsulfanyl-thiazolo[5,4-d]pyrimidin-7-yl]-(4-trifluoromethyl-phenyl)-amine]
23	15	Cc1nc(Nc2ccc(C(F)(F)F)cc2)c2nc(Cc3c(Cl)cccc3Cl)sc2n1 [Example 6, [2-(2,6-Dichloro-benzyl)-5-methyl-thiazolo[5,4-d]pyrimidin-7-yl]-(4-trifluoromethyl-phenyl)-amine]
30	55	FC(F)(F)c1ccc(Nc2ncnc3sc(Cc4c(Cl)cccc4Cl)nc23)cn1 [Example 8, [2-(2,6-Dichloro-benzyl)-thiazolo[5,4-d]pyrimidin-7-yl]-(6-trifluoromethyl-pyridin-3-yl)-amine]
–	4	FC(F)(F)c1ccc(Nc2ncnc3sc(Cc4ccccc4C(F)(F)F)nc23)cc1 [Example 30, 2-[2-(Trifluoromethyl)benzyl]-N-[4-(trifluoromethyl)phenyl][1,3]thiazolo[5,4-d]pyrimidin-7-amine]
–	2450	COC[C@@H]1CCCN1c1nc(Nc2ccc(C(F)(F)F)cc2)c2nc(Cc3c(Cl)cccc3Cl)sc2n1 [Example 71, (S)-[2-(2,6-Dichloro-benzyl)-5-(2-methoxymethyl-pyrrolidin-1-yl)-thiazolo[5,4-d]pyrimidin-7-yl]-(4-trifluoromethyl-phenyl)-amine]
–	72	CC(C)Nc1nc(Nc2ccc(C(F)(F)F)cc2)c2nc(Cc3c(Cl)cccc3Cl)sc2n1 [Example 72, 2-(2,6-Dichloro-benzyl)-N^5-isopropyl-N^7-(4-trifluoromethyl-phenyl)-thiazolo[5,4-d]pyrimidine-5,7-diamine]
–	63	FC(F)(F)c1ccc(Nc2nc(N3CCC3)nc3sc(Cc4c(Cl)cccc4Cl)nc23)cc1 [Example 73, [5-Azetidin-1-yl-2-(2,6-dichloro-benzyl)-thiazolo[5,4-d]pyrimidin-7-yl]-(4-trifluoromethyl-phenyl)-amine]
–	> 6670	FC(F)(F)c1ccc(Nc2nc(N3CCNCC3)nc3sc(Cc4c(Cl)cccc4Cl)nc23)cc1 [Example 74, [2-(2,6-Dichloro-benzyl)-5-piperazin-1-yl-thiazolo[5,4-d]pyrimidin-7-yl]-(4-trifluoromethyl-phenyl)-amine trifluoroacetic acid salt]
–	132	CC(C)N1CCN(c2nc(Nc3ccc(C(F)(F)F)cc3)c3nc(Cc4c(Cl)cccc4Cl)sc3n2)CC1 [Example 75, [2-(2,6-Dichloro-benzyl)-5-(4-isopropyl-piperazin-1-yl)-thiazolo[5,4-d]pyrimidin-7-yl]-(4-trifluoromethyl-phenyl)-amine trifluoroacetic acid salt]
–	14	FC(F)(F)c1ccc(Nc2nc(N3CCCCC3)nc3sc(Cc4c(Cl)cccc4Cl)nc23)cc1 [Example 81, [2-(2,6-Dichloro-benzyl)-5-piperidin-1-yl-thiazolo[5,4-d]pyrimidin-7-yl]-(4-trifluoromethyl-phenyl)-amine]
–	195	CC(C)(C)c1nnc(Nc2ncnc3sc(Cc4c(Cl)cccc4Cl)nc23)s1 [Example 99, N-(5-tert-Butyl-1,3,4-thiadiazol-2-yl)-2-(2,6-dichlorobenzyl)[1,3]thiazolo[5,4-d]pyrimidin-7-amine]
